In PubChem BioAssay (NCI) one finds GI50 and TGI data, which are given here for 18 compounds.

SMILES strings stand for the structures.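 Cultured in 96-well plates, cells were exposed to test compound for 48 hours across five concentrations. At the GI50, growth is halved. The concentration for full growth arrest is given as TGI.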

Test systems include MDA-MB-435; BT-549 breast; PC-3 prostate; DU-145 prostate.
Holding throughout (assay): DTP human tumour cell line panel, 48 h

Consider `C[C@@H]1C=C(CCCCCCCCCCC[C@H](O)[C@@H]2CCC(=O)O2)C(=O)O1`, for which the GI50 in the experiment on MDA-MB-435 is 24.3 µM; in the experiment with BT-549 breast, 47.4 µM; with PC-3 prostate it was 30.5 µM; in the experiment on DU-145 prostate it was 24.1 µM. Further, the TGI with MDA-MB-435 is 60.2 µM; in the experiment on BT-549 breast, over 100 µM; in the experiment with PC-3 prostate it was 92.9 µM; in the experiment on DU-145 prostate, over 100 µM.
Consider `COc1cc(Nc2nc3cc(N)cc(N)c3nc2-c2ccccc2)cc(OC)c1`, for which the GI50 is 11.5 µM in the experiment on MDA-MB-435, 4.69 µM with BT-549 breast, 1.96 µM in the experiment with PC-3 prostate and 22.7 µM in the experiment on DU-145 prostate. Further, the TGI with MDA-MB-435 was 23.8 µM; with BT-549 breast, 31.8 µM; in the experiment on PC-3 prostate, 10.9 µM; with DU-145 prostate, over 100 µM.
For the compound `O=C(O)c1cc2ccccc2c(O)c1O`, the concentration for total growth inhibition (TGI) is 3.33 µM with MDA-MB-435, 30 µM in the experiment with BT-549 breast, 37 µM in the experiment with PC-3 prostate and 32.3 µM in the experiment on DU-145 prostate.
For the compound `C(=N\Nc1ccccn1)/c1ccccn1`, the values for the GI50 with MDA-MB-435, with BT-549 breast and in the experiment on DU-145 prostate were 0.483 µM, 1.62 µM and 0.324 µM, respectively. Besides, the TGI with MDA-MB-435, with BT-549 breast and with PC-3 prostate was over 100 µM each time.
Take `CCN(Cc1cccc(OC)c1)c1ccc(CO)c(Cl)c1`: the GI50 was 16.6 µM with MDA-MB-435, 13.9 µM in the experiment on BT-549 breast, 19.8 µM in the experiment on PC-3 prostate and 21.1 µM in the experiment on DU-145 prostate. The total growth inhibition concentration (TGI) is 35.6 µM with MDA-MB-435, 28.9 µM in the experiment with BT-549 breast, 74.3 µM in the experiment on PC-3 prostate and 67.5 µM in the experiment with DU-145 prostate.
Turning to `Cc1ccc(C(CN(C)C)C(=O)c2ccccc2)cc1` (stereo unspecified), the GI50 is 2.45 µM with MDA-MB-435, 1.7 µM in the experiment on BT-549 breast, 1.84 µM in the experiment on PC-3 prostate and 1.93 µM in the experiment on DU-145 prostate. The TGI is 8.92 µM in the experiment on MDA-MB-435, 3.75 µM in the experiment on BT-549 breast, 4.36 µM in the experiment with PC-3 prostate and 5.12 µM with DU-145 prostate.
In the case of `CCCCn1c2cc(OCc3cn(-c4ccc(Cl)cc4)nn3)ccc2c2ccnc(C)c21`, the GI50 was 9.47 µM in the experiment with MDA-MB-435, 7.85 µM in the experiment with PC-3 prostate and 15.2 µM in the experiment on DU-145 prostate. Besides, the total growth inhibition concentration (TGI) with MDA-MB-435, with PC-3 prostate and with DU-145 prostate was over 33.3 µM in each case.
For the compound `O=Cc1c(-c2cc(O)ccc2O)nc2sccn12`, the GI50 in the experiment with MDA-MB-435 is 15.6 µM; in the experiment with BT-549 breast it was 18 µM; in the experiment on PC-3 prostate, 11.9 µM; in the experiment with DU-145 prostate, 22.6 µM. In addition, the concentration for total growth inhibition (TGI) with MDA-MB-435 turned out to be 34.2 µM; with BT-549 breast, 48.8 µM; in the experiment on PC-3 prostate, 38.3 µM; with DU-145 prostate, 49.2 µM.
With `C1CC[N-]CC1.C1CC[N-]CC1.C1CC[N-]CC1.C1CC[N-]CC1.[Cl][Rh][Cl]`, the GI50 is 4.09 µM in the experiment on MDA-MB-435, 5.6 µM with BT-549 breast and 6.3 µM in the experiment on DU-145 prostate. Also, the total growth inhibition concentration (TGI) in the experiment on MDA-MB-435 was found to be 32.4 µM; in the experiment with BT-549 breast, 19.3 µM; with DU-145 prostate it was 53.8 µM.
Consider `Cc1ccc(C(=O)Nc2ccc(CN3CCN(C)CC3)c(C(F)(F)F)c2)cc1C#Cc1cnc(N)cc1C#N`, for which the GI50 in the experiment on MDA-MB-435 was 0.0721 µM; in the experiment on BT-549 breast, 0.654 µM; with PC-3 prostate, 0.343 µM; in the experiment with DU-145 prostate, 0.127 µM. In addition, the concentration for total growth inhibition (TGI) with MDA-MB-435 came out at 0.659 µM; in the experiment with BT-549 breast it was 2.67 µM; in the experiment on PC-3 prostate it was 1.76 µM; with DU-145 prostate, 0.838 µM.
Take `COCCn1cc(-c2csc(-c3c[nH]c4ccccc34)n2)c2cccnc21`: the GI50 in the experiment on MDA-MB-435 was 0.863 µM; with BT-549 breast it was 4.45 µM; with PC-3 prostate, 6.81 µM; with DU-145 prostate it was 15.4 µM. Also, the TGI with MDA-MB-435 was 5.25 µM; in the experiment with BT-549 breast, over 100 µM; in the experiment with PC-3 prostate, over 100 µM; in the experiment on DU-145 prostate it was over 100 µM.
Take `O=C(O)C(=Cc1ccnc2ccccc12)C(=O)O`: the concentration for total growth inhibition (TGI) in the experiment with BT-549 breast, in the experiment with PC-3 prostate and in the experiment on DU-145 prostate was over 100 µM throughout.
As for `Oc1ccc(Cc2ccc(O)c3ncccc23)c2cccnc12`, the GI50 in the experiment with MDA-MB-435 was 0.0383 µM; in the experiment with BT-549 breast it was 0.0382 µM; in the experiment on PC-3 prostate, 0.0583 µM; in the experiment on DU-145 prostate, 0.0564 µM. In addition, the TGI is over 100 µM with MDA-MB-435, over 100 µM with BT-549 breast, 53.2 µM in the experiment with PC-3 prostate and over 100 µM with DU-145 prostate.
Take `N#Cc1c(C(=O)c2ccccc2)cnn1-c1ccccc1`: the GI50 with MDA-MB-435, in the experiment on BT-549 breast, in the experiment on PC-3 prostate and in the experiment with DU-145 prostate was over 25 µM in each case. Besides, the concentration for total growth inhibition (TGI) in the experiment on MDA-MB-435, in the experiment with BT-549 breast, in the experiment on PC-3 prostate and with DU-145 prostate was over 25 µM in each case.
In the case of `O=c1cc(C(F)(F)F)c2cc3c(cc2o1)NCCC3`, the total growth inhibition concentration (TGI) in the experiment with MDA-MB-435, in the experiment with BT-549 breast, in the experiment on PC-3 prostate and in the experiment with DU-145 prostate was over 100 µM throughout.
As to `CC1=C(/C=C/C(C)=C\C=C\C(C)=C\C(=O)Nc2ccc3c(c2)OCO3)C(C)(C)CCC1`, the GI50 was 16.7 µM in the experiment with MDA-MB-435, 98.5 µM in the experiment with BT-549 breast, 41.2 µM in the experiment with PC-3 prostate and over 100 µM in the experiment on DU-145 prostate. The TGI in the experiment on MDA-MB-435, in the experiment on BT-549 breast, in the experiment on PC-3 prostate and in the experiment on DU-145 prostate was over 100 µM each time.
Take `Nc1ccccc1C#C/C=C\C#Cc1ccccc1C(F)(F)F`: the GI50 in the experiment with MDA-MB-435 is 0.355 µM; in the experiment on BT-549 breast it was 0.699 µM; in the experiment on PC-3 prostate it was 4.41 µM; in the experiment on DU-145 prostate, 2.7 µM. Further, the TGI with MDA-MB-435 amounted to 1.3 µM; in the experiment with BT-549 breast, 17.3 µM; in the experiment with PC-3 prostate, 45.1 µM; with DU-145 prostate, 14.7 µM.
Consider `Cc1c(N=Nc2ccc([N+](=O)[O-])cc2)nc2scc(-c3ccccc3)n12`, for which the concentration for total growth inhibition (TGI) in the experiment on MDA-MB-435, in the experiment on BT-549 breast, in the experiment with PC-3 prostate and with DU-145 prostate was over 100 µM in each case.
